The target of the assay is T1, PPIP5K2^1-366 (human PPIP5K2 kinase domain) (Homo sapiens, UniProt O43314).
T1 construct: one comprised residues 1–366; made in house
T1 sequence (O43314 1-366): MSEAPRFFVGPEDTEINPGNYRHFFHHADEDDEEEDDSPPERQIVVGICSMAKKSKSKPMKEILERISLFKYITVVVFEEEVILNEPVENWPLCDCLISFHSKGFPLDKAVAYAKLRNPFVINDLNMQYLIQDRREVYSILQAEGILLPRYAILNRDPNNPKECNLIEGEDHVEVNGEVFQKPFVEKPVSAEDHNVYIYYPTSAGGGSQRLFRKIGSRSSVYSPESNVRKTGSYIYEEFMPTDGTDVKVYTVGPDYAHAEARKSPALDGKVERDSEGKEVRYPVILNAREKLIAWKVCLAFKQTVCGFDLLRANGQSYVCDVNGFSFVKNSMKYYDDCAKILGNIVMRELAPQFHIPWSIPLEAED
Kind of assay: Isothermal titration calorimetry of ligand binding to PPIP5K2KD. The note with it: ITC, 25°C; for ΔH / ΔS: 7.5 μM PPIP5K2^1-366, 75 μM ligand, pH 7.2; for Kd: 7.5 μM PPIP5K2^1-366 in cell, 75 μM ligand in syringe, pH 7.2, 1mM AMP-PNP, 1mM MgCl2, read-out: Kd (apparent).
Excerpt: We next used isothermal titration calorimetry (ITC) to analyze the interactions of PPIP5K2^KD with 5PP-IP5 and each of the four analogs studied herein (Figure 5A-E). […] At the same time, the enthalpic gain for binding was largest for 5PCF2Am-IP5 and 5PA-IP5. A possible explanation may be that these two ligands are less strongly hydrated, due to their lower overall charge. The enthalpic cost for dehydration of 5PCF2Am-IP5 and 5PA-IP5 is therefore lower, compared to the other molecules, resulting in a higher enthalpic gain overall. A less strongly hydrated ligand will also release fewer water molecules upon binding, consistent with the lower entropic gains.
Figure 5 Analysis of ligand binding to the PPIP5K2^KD by ITC. Test solutions contained 7.5 μM of PPIP5K2^1-366 in the sample cell and 75 μM ligand in the syringe. Other details are provided in the Methods Section. Representative thermograms (1 of 3 replicates) are shown for titration of either (A) 5PP-IP5; (B) 5PCPF2P-IP5; (C) 5PCP-IP5; (D) 5PCF2Am-IP5; (E) 5PA-IP5. (F) Corresponding thermodynamic data. TEXT PRINTED IN THE PICTURE: (F) 5PP-: Kd (nM): 123 ± 13; ΔH (kJ/mol): -26 ± 2; ΔS (kJ/mol/deg): 0.046 ± 0.008 | (F) 5PCF2-: Kd (nM): 246 ± 10; ΔH (kJ/mol): -16 ± 1; ΔS (kJ/mol/deg): 0.072 ± 0.005 | (F) 5PCP-: Kd (nM): 100 ± 10; ΔH (kJ/mol): -20 ± 2; ΔS (kJ/mol/deg): 0.067 ± 0.016 | (F) 5PCF2-Am-: Kd (nM): 90 ± 13; ΔH (kJ/mol): -38 ± 2; ΔS (kJ/mol/deg): 0.007 ± 0.004 | (F) 5PA-: Kd (nM): 90 ± 7; ΔH (kJ/mol): -36 ± 3; ΔS (kJ/mol/deg): 0.013 ± 0.008 […]
(§1) Calorimetry experiments were performed using a MicroCal PEAQ-ITC (Malvern Panalytical) with 7.5 μM recombinant PPIP5K21-366 in the sample cell and 75 μM of ligand in the syringe, each of which was maintained at 25°C in buffer containing 20 mM HEPES, pH 7.2, 150 mM KCl, 0.05 mM EDTA, 1mM AMP-PNP, 1mM MgCl2 as indicated. The sample cell (volume = 204 μL) and the syringe were cleaned before each run. Thermograms were constructed from 13 injections, each of which involved 3 μL of ligand delivered for 6 s, with an equilibration time of 150-300 s between each injection. The stirring speed was set to 750 rpm. Data were fitted to a single binding site model using the analysis software provided by the manufacturer. At least three runs were performed for each condition.
Protein expression and purification.
Throughout the main text, PPIP5K2KD is deployed as an abbreviation for the human PPIP5K2 kinase domain. However, two different constructs were utilized, as described in the figure legends and within the Methods section below: one comprised residues 1–366 (PPIP5K21-366) and the other comprised residues 41–366 (PPIP5K241-366). Both constructs were expressed and purified as described previously.[6] The human DIPP1 construct (residues 1-148) was expressed and purified as described in [7]. […]
The molecular graphics representations wer e prepared with the program PyMol (Schrödinger, LLC). Atomic coordinates an d structure factors have been deposited with the Protein Data Bank with accession codes 8G9C, 8G9D, 8G9E.
PPIP5K2KD reverse kinase assay […]
Isothermal titration calorimetry
as §1, with “PPIP5K21–366” for “PPIP5K21-366”, “2 04 µL)” for “204 μL)”, “µL” for “μL”, “150 -300” for “150-300”, “cond ition. […]” for “condition.”
(In general: ITC needs no label: the signal is the heat of the interaction.)

On to `O=P(O)(O)CP(=O)(O)O[C@H]1[C@H](OP(=O)(O)O)[C@@H](OP(=O)(O)O)[C@@H](OP(=O)(O)O)[C@@H](OP(=O)(O)O)[C@@H]1OP(=O)(O)O` [5PCP-IP5], for which the ΔH was -4.78 ± 0.48 kcal/mol, the ΔS was determined as 0.067 ± 0.016 kJ/mol/deg and the Kd is 100 ± 10 nM.

For `O=P(O)(O)O[C@H]1[C@@H](OP(=O)(O)O)[C@H](OP(=O)(O)O)[C@@H](OP(=O)(O)C(F)(F)P(=O)(O)O)[C@H](OP(=O)(O)O)[C@H]1OP(=O)(O)O` [5PCF2P-IP5], the ΔH is -3.82 ± 0.24 kcal/mol, the ΔS was found to be 0.072 ± 0.005 kJ/mol/deg and the Kd is 246 nM.

(Values after publication PMC7615343, “Fluorination Influences the Bioisostery of Myo-Inositol Pyrophosphate Analogs” (Chemistry (Weinheim an der Bergstrasse, Germany), 2023).)
